How the values were obtained:
Meth A fibrosarcoma = test: Antitumor testing against Meth A fibrosarcoma (oral, s.c. implanted); assay type: in vivo, mice; settings: Mus musculus, read-out: Inhibition of tumor growth; for inhibition in vivo at 1500 µmol/kg: 1.5 mmole/kg/day × 7, p.o.; for inhibition in vivo at 3000 µmol/kg: 3.0 mmole/kg/day × 7, p.o.; for inhibition in vivo at 800 µmol/kg: 0.8 mmole/kg/day × 7, p.o.
Method: (§1) Sarcoma 180 cells (2×10^6 cells) were implanted subcutaneously into mice (20-22 g) on day 0. The compounds of the present invention were administered daily from day 1 through 7 orally. The animals were sacrificed on day 14 and tumors were excised and weighed. The percent inhibition of tumor growth given in Table 1 below was calculated from the formula:
(§2) T=weight of the tumors from the treated group, C=weight of the tumors from the control group.
Meth A fibrosarcoma cells (2×10^5 cells) were implanted subcutaneously into mice (21-22 g). The testing against Meth A fibrosarcoma and the calculation of the percent inhibition of tumor growth were effected according to a manner analogous to that of the testing against Sarcoma 180.

Sarcoma 180 = test: Antitumor testing against Sarcoma 180 (oral, s.c. implanted); assay type: in vivo, mice; settings: Mus musculus, 336 h, day 14, read-out: Inhibition of tumor growth; for inhibition in vivo at 800 µmol/kg: 0.8 mmole/kg/day × 7, p.o.; for inhibition in vivo at 1500 µmol/kg: 1.5 mmole/kg/day × 7, p.o.; for inhibition in vivo at 500 µmol/kg: 0.5 mmole/kg/day × 7, p.o.; for inhibition in vivo at 1400 µmol/kg: 1.4 mmole/kg/day × 7, p.o.; for inhibition in vivo at 2700 µmol/kg: 2.7 mmole/kg/day × 7, p.o.; for inhibition in vivo at 3000 µmol/kg: 3.0 mmole/kg/day × 7, p.o.
Method: as §1, §2

Structure (SMILES) | inhibition in vivo at 1500 µmol/kg (Meth A fibrosarcoma) [%] | inhibition in vivo at 3000 µmol/kg (Meth A fibrosarcoma) [%] | also measured
COc1ccc(C(=O)Nc2nc(=O)n([C@@H]3O[C@H](C)[C@@H](O)[C@H]3O)cc2F)c(OC)c1 [Example 28] | -13 | -13 | 
C[C@H]1O[C@@H](n2cc(F)c(N)nc2=O)[C@H](OC(=O)c2ccccc2)[C@@H]1OC(=O)c1ccccc1 [Example 57, 2',3'-di-O-benxoyl-5'-deoxy-5-fluorocytidine] | 28 | 56 | 
C[C@H]1O[C@@H](n2cc(F)c(NC(=O)c3ccc(Cl)cc3)nc2=O)[C@H](O)[C@@H]1O [Example 20] | 53 | 84 | 
COc1ccc(C(=O)Nc2nc(=O)n([C@@H]3O[C@H](C)[C@@H](O)[C@H]3O)cc2F)cc1OC [Example 26] | 37 | 58 | 
C=CCC(=O)Nc1nc(=O)n([C@@H]2O[C@H](C)[C@@H](O)[C@H]2O)cc1F [Example 49, N^4-(3-butenoyl)-5'-deoxy-5-fluorocytidine] | 58 | 76 | 
C[C@H]1O[C@@H](n2cc(F)c(NC(=O)c3ccco3)nc2=O)[C@H](O)[C@@H]1O [Example 36, 5'-deoxy-5-fluoro-N^4-(2-furoyl)cytidine] | 53 | 92 | 
COc1cc(OC)cc(C(=O)Nc2nc(=O)n([C@@H]3O[C@H](C)[C@@H](O)[C@H]3O)cc2F)c1 [Example 27] | 58 | 91 | 
COC(=O)c1ccc(C(=O)Nc2nc(=O)n([C@@H]3O[C@H](C)[C@@H](O)[C@H]3O)cc2F)cc1 [Example 31, 5'-deoxy-5-fluoro-N^4-(4-methoxycarbonylbenzoyl)cytidine] | 55 | 84 | 
C[C@H]1O[C@@H](n2cc(F)c(NC(=O)C3CCCCC3)nc2=O)[C@H](O)[C@@H]1O [Example 12, N^4-cyclohexanecarbonyl-5'-deoxy-5-fluorocytidine] |  |  | inhibition in vivo at 800 µmol/kg (Sarcoma 180): 40%; inhibition in vivo at 1500 µmol/kg (Sarcoma 180): 73%
C[C@H]1O[C@@H](n2cc(F)c(NC(=O)c3ccc([N+](=O)[O-])cc3)nc2=O)[C@H](O)[C@@H]1O [Example 29] | 49 | 92 | 
CCC(=O)Nc1nc(=O)n([C@@H]2O[C@H](C)[C@@H](O)[C@H]2O)cc1F [Example 45, 5'-deoxy-5-fluoro-N^4-propionylcytidine] | 49 | 71 | 
CCSC(=O)Nc1nc(=O)n([C@@H]2O[C@H](C)[C@@H](O)[C@H]2O)cc1F [Example 44, 5'-deoxy-N^4-(ethylthio)carbonyl-5-fluorocytidine] | 38 | 66 | 
C[C@H]1O[C@@H](n2cc(F)c(NC(=O)c3ccc(F)cc3)nc2=O)[C@H](O)[C@@H]1O [Example 23, 5'-deoxy-5-fluoro-N^4-(4-fluorobenzoyl)cytidine] | 64 |  | inhibition in vivo at 800 µmol/kg (Meth A fibrosarcoma): 56%
C[C@H]1O[C@@H](n2cc(F)c(NC(=O)c3ccccc3)nc2=O)[C@H](O)[C@@H]1O [Example 16, N^4-benzoyl-5'-deoxy-5-fluorocytidine] | 58 |  | inhibition in vivo at 800 µmol/kg (Meth A fibrosarcoma): 38%
C[C@H]1O[C@@H](n2cc(F)c(NC(=O)Cc3ccccc3)nc2=O)[C@H](O)[C@@H]1O [Example 14] | 66 | 94 | 
C[C@H]1O[C@@H](n2cc(F)c(NC(=O)c3ccc4c(c3)OCO4)nc2=O)[C@H](O)[C@@H]1O [Example 48, 5'-deoxy-5-fluoro-N^4-piperonyloylcytidine] | 72 |  | inhibition in vivo at 800 µmol/kg (Meth A fibrosarcoma): 42%
C[C@H]1O[C@@H](n2cc(F)c(N)nc2=O)[C@H](O)[C@@H]1OC(=O)c1ccccc1 [Example 59, 3'-O-benzoyl-5'-deoxy-5-fluorocytidine] | 23 | 80 | 
C[C@H]1O[C@@H](n2cc(F)c(NC(=O)c3cccc([N+](=O)[O-])c3)nc2=O)[C@H](O)[C@@H]1O [Example 30] | 55 | 58 | 
CCCCCCCCC(=O)Nc1nc(=O)n([C@@H]2O[C@H](C)[C@@H](O)[C@H]2O)cc1F [Example 6, 5'-deoxy-5-fluoro-N^4-nonanoylcytidine] |  |  | inhibition in vivo at 500 µmol/kg (Sarcoma 180): 28%; inhibition in vivo at 1500 µmol/kg (Sarcoma 180): 76%

Structure (SMILES) | inhibition in vivo at 1500 µmol/kg (Meth A fibrosarcoma) [%] | inhibition in vivo at 3000 µmol/kg (Meth A fibrosarcoma) [%] | also measured
C[C@H]1O[C@@H](n2cc(F)c(NC(=O)/C=C/c3ccccc3)nc2=O)[C@H](O)[C@@H]1O [Example 15, N^4-cinnamoyl-5'-deoxy-5-fluorocytidine] |  |  | inhibition in vivo at 800 µmol/kg (Sarcoma 180): 47%; inhibition in vivo at 1500 µmol/kg (Sarcoma 180): 62%
Cc1ccc(C(=O)Nc2nc(=O)n([C@@H]3O[C@H](C)[C@@H](O)[C@H]3O)cc2F)cc1C [Example 53] | 48 | 85 | 
C[C@H]1O[C@@H](n2cc(F)c(NC(=O)c3cccs3)nc2=O)[C@H](O)[C@@H]1O [Example 37, 5'-deoxy-5-fluoro-N^4-(2-thenoyl)cytidine] | 59 | 86 | 
Cc1ccccc1C(=O)Nc1nc(=O)n([C@@H]2O[C@H](C)[C@@H](O)[C@H]2O)cc1F [Example 19] | 3 | 64 | 
C[C@H]1O[C@@H](n2cc(F)c(NC(=O)c3cccc(Cl)c3)nc2=O)[C@H](O)[C@@H]1O [Example 21] | 60 |  | inhibition in vivo at 800 µmol/kg (Meth A fibrosarcoma): 17%
CCCCCCCCCCCCCCCCCC(=O)Nc1nc(=O)n([C@@H]2O[C@H](C)[C@@H](O)[C@H]2O)cc1F [Example 8, 5'-deoxy-5-fluoro-N^4-octadecanoylcytidine] |  |  | inhibition in vivo at 1400 µmol/kg (Sarcoma 180): 20%; inhibition in vivo at 2700 µmol/kg (Sarcoma 180): 77%
C[C@H]1O[C@@H](n2cc(F)c(NC(=O)Cc3c[nH]c4ccccc34)nc2=O)[C@H](O)[C@@H]1O [Example 54, 5'-deoxy-5-fluoro-N^4-(3-indolylacetyl)cytidine] | 55 | 85 | 
Cc1cccc(C(=O)Nc2nc(=O)n([C@@H]3O[C@H](C)[C@@H](O)[C@H]3O)cc2F)c1 [Example 18] | 51 | 91 | 
COc1ccccc1C(=O)Nc1nc(=O)n([C@@H]2O[C@H](C)[C@@H](O)[C@H]2O)cc1F [Example 25] | -6 | 34 | 
C[C@H]1O[C@@H](n2cc(F)c(NC(=O)C(C)(C)C)nc2=O)[C@H](O)[C@@H]1O [Example 10, 5'-deoxy-5-fluoro-N^4-pivaloylcytidine] |  |  | inhibition in vivo at 1500 µmol/kg (Sarcoma 180): 74%; inhibition in vivo at 3000 µmol/kg (Sarcoma 180): 97%
C[C@H]1O[C@@H](n2cc(F)c(NC(=O)CCc3ccccc3)nc2=O)[C@H](O)[C@@H]1O [Example 52] | 51 |  | inhibition in vivo at 800 µmol/kg (Meth A fibrosarcoma): 41%
C[C@H]1O[C@@H](n2cc(F)c(NC(=O)c3ccc4ccccc4c3)nc2=O)[C@H](O)[C@@H]1O [Example 40, 5'-deoxy-5-fluoro-N^4-(2-naphthoyl)cytidine] | 57 |  | inhibition in vivo at 800 µmol/kg (Meth A fibrosarcoma): 41%
Cc1ccc(C(=O)Nc2nc(=O)n([C@@H]3O[C@H](C)[C@@H](O)[C@H]3O)cc2F)cc1 [Example 17] |  |  | inhibition in vivo at 1300 µmol/kg (Sarcoma 180; 1.3 mmole/kg/day × 7, p.o.): 75%; inhibition in vivo at 2600 µmol/kg (Sarcoma 180; 2.6 mmole/kg/day × 7, p.o.): 92%
C[C@H]1O[C@@H](n2cc(F)c(NC(=O)OCc3ccccc3)nc2=O)[C@H](O)[C@@H]1O [Example 42, N^4-(benzyloxycarbonyl)-5'-deoxy-5-fluorocytidine] |  |  | inhibition in vivo at 500 µmol/kg (Sarcoma 180): 0%; inhibition in vivo at 1500 µmol/kg (Sarcoma 180): 36%
C[C@H]1O[C@@H](n2cc(F)c(NC(=O)c3ccccc3Cl)nc2=O)[C@H](O)[C@@H]1O [Example 22] | 42 | 42 | 
CCCCCCCCCCCCCCCC(=O)Nc1nc(=O)n([C@@H]2O[C@H](C)[C@@H](O)[C@H]2O)cc1F [Example 7, 5'-deoxy-5-fluoro-N^4-hexadecanoylcytidine] |  |  | inhibition in vivo at 1400 µmol/kg (Sarcoma 180): 57%; inhibition in vivo at 2700 µmol/kg (Sarcoma 180): 84%
C[C@H]1O[C@@H](n2cc(F)c(NC(=O)C34CC5CC(CC(C5)C3)C4)nc2=O)[C@H](O)[C@@H]1O [Example 13, N^4-(1-adamantanecarbonyl)-5'-deoxy-5-fluorocytidine] |  |  | inhibition in vivo at 800 µmol/kg (Sarcoma 180): 28%; inhibition in vivo at 1500 µmol/kg (Sarcoma 180): 66%
C[C@H]1O[C@@H](n2cc(F)c(NC(=O)C3CC3)nc2=O)[C@H](O)[C@@H]1O [Example 11, N^4-cyclopropanecarbonyl-5'-deoxy-5-fluorocytidine] |  |  | inhibition in vivo at 800 µmol/kg (Sarcoma 180): 69%; inhibition in vivo at 1500 µmol/kg (Sarcoma 180): 90%
CC(=O)Nc1nc(=O)n([C@@H]2O[C@H](C)[C@@H](O)[C@H]2O)cc1F [Example 2, N^4-acetyl-5'-deoxy-5-fluorocytidine] |  |  | inhibition in vivo at 1500 µmol/kg (Sarcoma 180): 84%; inhibition in vivo at 3000 µmol/kg (Sarcoma 180): 91%

Reference: patent US4966891A, “Fluorocytidine derivatives” (priority 1987, dated 1990)
